Experimental data taken from paper PMC4764201, “High Throughput Screen for Escherichia coli Twin Arginine Translocation (Tat) Inhibitors” (PLoS ONE, 2016).

Key:
[1] = molecular target: T1, E. coli Tat machinery (IMVs containing overproduced TatABC) (Escherichia coli, UniProt P69423+P69425+P69428); assay: In vitro Tat transport assay of pre-SufI into IMVs, NADH as energy source; type: biochemical; details: hit compound 20 μM; NADH 4 mM; 37°C 30 min
Procedure: (§1) To directly test for inhibition of Tat transport, a gel-based in vitro Tat transport assay was performed using pre-SufI, an authentic Tat precursor protein [7]. In short, this assay consists of incubating a Tat substrate and a Δψ-generating energy source with inverted membrane vesicles (IMVs) containing overproduced TatABC, digesting remaining external protein with a protease, and then analyzing via SDS-PAGE. This assay was run twice using NADH and ATP (if warranted) as energy sources to generate the necessary Δψ. NADH generates a Δψ using respiratory proteins (i.e., the NADH dehydrogenase and cytochrome bo3 ubiquinol oxidase complexes) and ATP generates a Δψ by reversal of ATP synthase. A true Tat inhibitor would survive both assays. In contrast, a respiration inhibitor is expected to reduce Tat transport when only one of the two energy sources is used (except for an ionophore).
Fig 8 Effect of Hits from the Local HTS on In Vitro Tat Transport. (A) Tat transport assays of pre-SufI using NADH to generate a Δψ. Inverted membrane vesicles (IMVs; A280 = 5.0), the fluorescent substrate pre-SufI-IAC^Atto565 (90 nM), and NADH (4 mM) were incubated at 37°C for 30 min with DMSO (control) or with hit compound (20 μM). Samples were treated with the protease proteinase K, run on SDS-PAGE, and analyzed by in-gel fluorescence imaging. Assays were run in duplicate. Band intensity corresponds to the amount of protein transported into the IMV lumen. The following 7 compounds survived this screen: 1^JS, 51^JS, 55^JS, 111^JS, 181^JS, 202^JS, and 140^JS (boxed in red). (B) Tat transport assays of pre-SufI using ATP to generate a Δψ. All 7 compounds surviving the screen in (A) were tested using a Tat transport assay performed identically to those in (A) except that ATP (1 mM) was used in place of NADH. Compound 55^JS was eliminated by this assay—the other 6 compounds survived (boxed in red). (C) Chemical structure of compound 55^JS, N-(4,7-Dioxo-4,7-dihydro-2,1,3-benzoxadiazol-5-yl)acetamide.
Isolation of inverted membrane vesicles (IMVs), Western blot analyses and purification of pre-SufI-IAC were performed as described previously. Western blots were performed using rabbit anti-mCherry antibodies (1:10,000 dilution) in the presence of 0.1% Triton X-100 and 0.1% Tween 20. The pre-SufI-IAC protein was labeled with Atto565 maleimide, and the resultant fluorescent protein, pre-SufI-IAC^Atto565, was used as a substrate for the in vitro Tat transport assays (A280 = 5.0), as described previously. The presence of a Δψ was determined by measuring oxonol VI fluorescence in presence of Tat^+ IMVs (A280 = 0.5), as described previously, except that the translocation buffer lacked BSA. Steady-state fluorescence spectra and fluorescence intensities of whole cells producing mCherry proteins were determined with an SLM-8100 spectrofluorometer.
Supplementary file pone.0149659.s003.tiff: S3 Fig IC50's for Hit Compound 181^JS. (A) The total cellular mCherry fluorescence (live cell assay; n = 1), (B) the in vitro NADH-dependent Tat transport efficiency of pre-SufI (n = 1), and (C) the maximum transmembrane electrical potential gradient (n = 1) were measured for a range of concentrations of compound 181^JS (S2E Fig). (D) SDS-PAGE gel showing in-gel fluorescence data used in (B). For (A), cells expressing spTorA-mCherry-SsrA were grown under Tat^++ conditions in a 384-well plate in the presence of 0, 0.08, 0.15, 0.3, 0.63, 1.25, 2.5, 5, 10, 20, or 40 μM compound 181^JS, as described for the HTS assay (see Methods). For (B) and (C), IMVs were incubated with the same concentrations of compound 181^JS prior to initiation of Tat transport and Δψ generation by the addition of NADH, as described previously. The red curves are best-fits using y = d + (100-d)/(1+(x/IC50)^b), where b is a slope factor and d is the high concentration asymptote. (TIFF) Click here for additional data file.

[2] = molecular target: T1, E. coli Tat machinery (IMVs containing overproduced TatABC); assay: In vitro Tat transport assay of pre-SufI into IMVs, ATP as energy source; type: biochemical; details: hit compound 20 μM; ATP 1 mM
Procedure: as §1
Fig 8 Effect of Hits from the Local HTS on In Vitro Tat Transport. (A) Tat transport assays of pre-SufI using NADH to generate a Δψ. […] Samples were treated with the protease proteinase K, run on SDS-PAGE, and analyzed by in-gel fluorescence imaging. Assays were run in duplicate. Band intensity corresponds to the amount of protein transported into the IMV lumen. The following 7 compounds survived this screen: 1^JS, 51^JS, 55^JS, 111^JS, 181^JS, 202^JS, and 140^JS (boxed in red). (B) Tat transport assays of pre-SufI using ATP to generate a Δψ. All 7 compounds surviving the screen in (A) were tested using a Tat transport assay performed identically to those in (A) except that ATP (1 mM) was used in place of NADH. […]
Isolation of inverted membrane vesicles (IMVs), Western blot analyses and purification of pre-SufI-IAC were performed as described previously. […] The presence of a Δψ was determined by measuring oxonol VI fluorescence in presence of Tat^+ IMVs (A280 = 0.5), as described previously, except that the translocation buffer lacked BSA. Steady-state fluorescence spectra and fluorescence intensities of whole cells producing mCherry proteins were determined with an SLM-8100 spectrofluorometer.

T1 sequence (P69423 2-258): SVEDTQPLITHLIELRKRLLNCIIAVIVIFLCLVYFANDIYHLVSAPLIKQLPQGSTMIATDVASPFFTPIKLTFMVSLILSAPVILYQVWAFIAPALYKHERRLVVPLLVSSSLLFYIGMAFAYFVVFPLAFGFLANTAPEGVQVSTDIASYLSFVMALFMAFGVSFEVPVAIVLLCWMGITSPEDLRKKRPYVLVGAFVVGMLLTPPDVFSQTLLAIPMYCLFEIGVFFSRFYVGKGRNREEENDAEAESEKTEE
T1 sequence (P69425 whole entry): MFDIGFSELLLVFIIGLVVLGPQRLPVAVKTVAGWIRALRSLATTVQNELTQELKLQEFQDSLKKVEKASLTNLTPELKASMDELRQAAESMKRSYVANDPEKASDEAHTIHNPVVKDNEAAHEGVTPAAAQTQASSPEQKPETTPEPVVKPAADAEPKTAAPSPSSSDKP
T1 sequence (P69428 whole entry): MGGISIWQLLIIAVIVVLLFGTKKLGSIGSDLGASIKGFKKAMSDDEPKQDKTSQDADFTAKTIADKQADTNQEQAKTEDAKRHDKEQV

For CC(=O)NC1=CC(=O)c2nonc2C1=O [Compound 55^JS, N-(4,7-dioxo-2,1,3-benzoxadiazol-5-yl)acetamide], the “outcome of NADH-dependent in vitro Tat transport screen (survival = visible inhibition of Tat transport)” value [1] was “survived” and the “outcome of ATP-dependent in vitro Tat transport screen (survival = visible inhibition of Tat transport)” value [2] was “eliminated”.
